Three molecules from patent US20240246942A1, “KINASE INHIBITORS FOR THE TREATMENT OF NEURODEGENERATIVE DISEASES” (priority 2020, published 2024) can be followed below.

Experiment in all cases: biochemical
Experiment [1] concerns the target T1, panel of 374 wild-type kinases (Homo sapiens, UniProt P42679).
T1 construct: purchased Reaction Biology Corporation
T1 sequence (P42679 1-507): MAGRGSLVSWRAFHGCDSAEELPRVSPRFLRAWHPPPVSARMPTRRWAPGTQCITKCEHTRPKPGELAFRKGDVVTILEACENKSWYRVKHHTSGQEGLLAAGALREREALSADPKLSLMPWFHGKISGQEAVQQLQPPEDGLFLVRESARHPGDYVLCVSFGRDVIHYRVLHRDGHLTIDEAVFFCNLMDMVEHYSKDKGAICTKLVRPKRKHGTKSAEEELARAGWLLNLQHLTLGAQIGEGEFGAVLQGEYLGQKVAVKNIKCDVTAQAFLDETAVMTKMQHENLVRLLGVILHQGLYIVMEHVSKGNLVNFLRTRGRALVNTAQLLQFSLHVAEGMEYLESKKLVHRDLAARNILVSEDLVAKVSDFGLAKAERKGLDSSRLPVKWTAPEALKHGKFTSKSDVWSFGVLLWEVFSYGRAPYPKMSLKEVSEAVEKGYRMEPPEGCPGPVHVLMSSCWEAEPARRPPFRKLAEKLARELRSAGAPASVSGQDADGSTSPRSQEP
Particulars: read-out: % Enzyme Activity (relative to DMSO controls), CTK/MATK.

The target in experiment [2] is T2, panel of 374 wild-type kinases (Homo sapiens, UniProt P35626).
T2 construct: purchased Reaction Biology Corporation
T2 sequence (P35626 1-688): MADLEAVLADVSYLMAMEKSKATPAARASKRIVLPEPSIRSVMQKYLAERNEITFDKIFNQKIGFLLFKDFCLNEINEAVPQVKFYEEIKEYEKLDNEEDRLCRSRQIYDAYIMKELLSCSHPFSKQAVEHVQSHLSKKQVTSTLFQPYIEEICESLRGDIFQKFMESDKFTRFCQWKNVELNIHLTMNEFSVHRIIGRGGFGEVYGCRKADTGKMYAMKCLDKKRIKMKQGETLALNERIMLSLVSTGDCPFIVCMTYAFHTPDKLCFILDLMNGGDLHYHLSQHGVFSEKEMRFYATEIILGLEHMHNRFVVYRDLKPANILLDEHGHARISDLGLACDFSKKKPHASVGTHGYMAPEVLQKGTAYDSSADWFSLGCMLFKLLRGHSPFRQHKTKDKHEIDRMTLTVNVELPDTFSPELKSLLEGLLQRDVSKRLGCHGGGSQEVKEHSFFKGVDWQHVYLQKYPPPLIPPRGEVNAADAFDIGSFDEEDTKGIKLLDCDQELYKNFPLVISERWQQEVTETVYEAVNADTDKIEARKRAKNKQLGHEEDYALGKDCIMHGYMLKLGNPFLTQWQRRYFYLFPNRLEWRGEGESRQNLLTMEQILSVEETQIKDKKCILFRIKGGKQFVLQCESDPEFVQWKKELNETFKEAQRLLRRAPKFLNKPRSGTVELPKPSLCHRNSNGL
The conditions noted are these: read-out: % Enzyme Activity (relative to DMSO controls), GRK3.

For experiment [3], the target named is T3, panel of 374 wild-type kinases (Homo sapiens, UniProt P37023).
T3 construct: purchased Reaction Biology Corporation
Particulars: read-out: % Enzyme Activity (relative to DMSO controls), ALK1/ACVRL1.

For experiment [4], the target named is T4, panel of 374 wild-type kinases (Homo sapiens, UniProt P07947).
T4 construct: purchased Reaction Biology Corporation
The conditions noted are these: read-out: % Enzyme Activity (relative to DMSO controls), kinase YES/YES1.

For experiment [5], the target named is T5, panel of 374 wild-type kinases (Homo sapiens, UniProt Q6VAB6).
T5 construct: purchased Reaction Biology Corporation
T5 sequence (Q6VAB6 1-950): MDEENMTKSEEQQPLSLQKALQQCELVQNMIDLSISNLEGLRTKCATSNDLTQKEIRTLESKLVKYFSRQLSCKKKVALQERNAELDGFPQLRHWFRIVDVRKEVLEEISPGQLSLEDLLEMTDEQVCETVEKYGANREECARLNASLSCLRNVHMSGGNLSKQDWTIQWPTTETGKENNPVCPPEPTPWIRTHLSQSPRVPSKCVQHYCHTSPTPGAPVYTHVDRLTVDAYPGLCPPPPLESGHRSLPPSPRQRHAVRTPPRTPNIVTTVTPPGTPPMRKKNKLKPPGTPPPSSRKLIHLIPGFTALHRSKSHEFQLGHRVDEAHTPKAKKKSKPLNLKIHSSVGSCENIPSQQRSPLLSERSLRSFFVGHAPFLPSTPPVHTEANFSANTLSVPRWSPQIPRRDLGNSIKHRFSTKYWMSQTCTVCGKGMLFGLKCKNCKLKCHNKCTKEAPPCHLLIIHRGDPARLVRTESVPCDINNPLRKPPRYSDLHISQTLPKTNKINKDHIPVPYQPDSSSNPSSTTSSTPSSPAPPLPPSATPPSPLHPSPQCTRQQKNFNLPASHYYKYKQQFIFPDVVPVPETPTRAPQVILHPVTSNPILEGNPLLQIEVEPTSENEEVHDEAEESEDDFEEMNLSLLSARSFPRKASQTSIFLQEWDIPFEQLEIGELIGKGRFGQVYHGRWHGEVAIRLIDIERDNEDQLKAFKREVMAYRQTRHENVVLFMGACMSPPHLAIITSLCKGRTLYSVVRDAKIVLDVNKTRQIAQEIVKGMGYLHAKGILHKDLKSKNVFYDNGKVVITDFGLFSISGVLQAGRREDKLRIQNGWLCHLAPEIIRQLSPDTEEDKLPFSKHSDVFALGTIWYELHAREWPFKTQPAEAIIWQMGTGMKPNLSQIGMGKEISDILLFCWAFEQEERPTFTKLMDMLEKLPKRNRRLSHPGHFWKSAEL
The conditions noted are these: read-out: % Enzyme Activity (relative to DMSO controls), KSR2.

Experiment [6] concerns the target T6, panel of 374 wild-type kinases (Homo sapiens, UniProt Q9UEE5).
T6 construct: purchased Reaction Biology Corporation
T6 sequence (Q9UEE5 1-414): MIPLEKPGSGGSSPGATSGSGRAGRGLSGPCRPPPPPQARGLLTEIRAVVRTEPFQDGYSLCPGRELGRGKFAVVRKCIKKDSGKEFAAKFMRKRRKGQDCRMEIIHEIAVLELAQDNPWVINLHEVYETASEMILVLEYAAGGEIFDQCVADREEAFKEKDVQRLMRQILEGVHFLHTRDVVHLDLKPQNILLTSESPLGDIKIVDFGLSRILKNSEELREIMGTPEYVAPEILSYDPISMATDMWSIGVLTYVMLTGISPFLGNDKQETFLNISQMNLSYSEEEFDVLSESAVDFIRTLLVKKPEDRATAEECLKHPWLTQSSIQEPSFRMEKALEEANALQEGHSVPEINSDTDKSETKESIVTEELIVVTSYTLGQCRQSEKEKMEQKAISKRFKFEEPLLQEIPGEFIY
The conditions noted are these: read-out: % Enzyme Activity (relative to DMSO controls), DRAK1/STK17A.

T4 sequence (P07947 whole entry): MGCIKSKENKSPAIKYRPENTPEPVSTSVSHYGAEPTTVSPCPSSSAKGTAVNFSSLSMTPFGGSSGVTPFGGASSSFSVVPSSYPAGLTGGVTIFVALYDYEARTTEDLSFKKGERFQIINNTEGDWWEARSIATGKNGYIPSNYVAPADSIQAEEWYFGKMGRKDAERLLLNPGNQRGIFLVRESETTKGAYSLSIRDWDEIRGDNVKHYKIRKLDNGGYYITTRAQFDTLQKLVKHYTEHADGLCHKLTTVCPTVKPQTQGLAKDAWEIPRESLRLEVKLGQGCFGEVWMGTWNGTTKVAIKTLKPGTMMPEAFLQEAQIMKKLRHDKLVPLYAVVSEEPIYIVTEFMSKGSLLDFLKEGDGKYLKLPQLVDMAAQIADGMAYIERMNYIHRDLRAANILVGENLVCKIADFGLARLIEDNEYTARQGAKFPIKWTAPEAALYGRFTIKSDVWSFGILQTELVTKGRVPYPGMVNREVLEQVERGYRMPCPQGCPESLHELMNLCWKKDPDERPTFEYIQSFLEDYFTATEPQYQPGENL
T3 sequence (P37023 22-503): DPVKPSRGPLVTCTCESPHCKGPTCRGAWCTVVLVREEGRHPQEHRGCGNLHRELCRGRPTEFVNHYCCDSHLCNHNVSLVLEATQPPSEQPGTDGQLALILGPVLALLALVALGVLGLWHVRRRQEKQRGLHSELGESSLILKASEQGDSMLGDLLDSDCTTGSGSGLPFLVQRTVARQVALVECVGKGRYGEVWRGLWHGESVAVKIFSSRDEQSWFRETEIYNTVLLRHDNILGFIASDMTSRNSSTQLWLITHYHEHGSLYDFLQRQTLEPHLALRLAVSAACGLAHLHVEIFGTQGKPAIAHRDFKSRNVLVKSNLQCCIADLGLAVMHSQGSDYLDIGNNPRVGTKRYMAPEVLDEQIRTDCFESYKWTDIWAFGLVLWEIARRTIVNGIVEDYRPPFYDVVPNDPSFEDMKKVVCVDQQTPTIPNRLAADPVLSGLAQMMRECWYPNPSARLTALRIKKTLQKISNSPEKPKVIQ

Consider `Cc1sc(C(=O)NC2COC2)cc1-n1cc(NC(=O)Nc2c(F)cccc2Cl)cn1` [Compound 27, 4-(4-(3-(2-chloro-6-fluorophenyl)ureido)-1H-pyrazol-1-yl)-5-methyl-N-(oxetan-3-yl)thiophene-2-carboxamide], for which the remaining activity at 10 µM in experiment [1] (10 uM) was found to be 97.8%; in experiment [2] (10 uM) it was 107%; in experiment [3] (10 uM) it was 78.7%; in experiment [4] (10 uM), 81.4%; in experiment [5] (10 uM), 99.2%; in experiment [6] (10 uM) it was 111%.

For `O=C(Nc1cnn(-c2csc(C(=O)NC3COC3)c2)c1)Nc1c(F)cccc1Cl` [Compound 25, 4-(4-(3-(2-chloro-6-fluorophenyl)ureido)-1H-pyrazol-1-yl)-N-(oxetan-3-yl)thiophene-2-carboxamide], the remaining activity at 5 µM came to 100% in experiment [1]; 101% in experiment [2]; 120% in experiment [3]; 91% in experiment [4]; 92.7% in experiment [5]; 89.4% in experiment [6].

Turning to `O=C(Nc1cnn(-c2csc(C(=O)NC3COC3)c2)c1)Nc1ccccc1Cl` [Compound 17, 4-(4-(3-(2-chlorophenyl)ureido)-1H-pyrazol-1-yl)-N-(oxetan-3-yl)thiophene-2-carboxamide], the remaining activity at 5 µM in experiment [1] was found to be 99.7%; in experiment [2], 102%; in experiment [3] it was 107%; in experiment [4], 96.5%; in experiment [5], 107%; in experiment [6], 98.4%.
